Measured values as given in patent US12252517B2, “Hook fusion protein for regulating the cellular trafficking of a target protein” (INSTITUT CURIE, priority 2017, dated 2025).

Key:
Format in all cases: cell-based
[1] = tested on: scFvCD19-Myc-DAP10-sSBP; test: Time course release using biotin (RUSH traffic, immunofluorescence) with Str-endoKKXX hook; settings: HeLa cells, addition of biotin (40 μM)
Protocol: (§1) HeLa cells were cultivated at 37° C. and 5% of CO2 in Dulbecco's modified Eagle medium (DMEM) supplemented with 10%1-BS (Biowest), 1 mM sodium Pyruvate and […] of penicillin and streptomycin (Invitrogen). HeLa cells were transfected with the plasmid of interest using Calcium phosphate protocol in the presence of 25 mM of HEPES. Briefly, the plasmids coding the sequence of CAR based RUSH such as CD3-SBP-NKG2D (SEQ ID NO: 13), scFv(CD19)-GFP-DAP10CD3-sSBP (SEQ ID NO: 23), scFv(CD19)-GFP-DAP10-SBPdel (SEQ ID NO: 24), scFv(CD19)-mycDAP10-SBP (SEQ ID NO: 25) or BACE1-SBP-EGFP (SEQ ID NO: 26) (2.5 ug per 1 mL of final volume) were add to 1 mM tris-HCl pH 8.02 buffer followed by the addition of 10% of CaCl2 and incubated for 5 min (RT). Then this mix was add drop by drop into 2× concentrate HEBS buffer (160 mM NaCl, 1.5 mM Na2HPO4, 50 mM Hepes PH 7.04-7.05) while vortexing. The cells were incubated with this solution overnight at 37° C. and 5% of CO2.
(§2) The cells were seeded into a glass coverslips for fixed cell immunofluorescence and/or live imaging. In the next day the cells were transfected with the plasmids coding the construct of interest as previously described. For the steady state of the protein/construct, 40 μM final concentration of biotin was added (4 mM stock solution) just after addition of the transfection solution. […]

[2] = tested on: scFv (CD19)-GFP-DAP10-sSBP; test: Time course release using biotin (RUSH traffic) with soluble mini hook; settings: HeLa cells, addition of biotin
Protocol: as §1, §2

[3] = tested on: scFv (CD19)-GFP-DAP10CD3-sSBP; test: as above; settings: HeLa cells, addition of biotin
Protocol: as §1, §2

[4] = tested on: BACE1-GFP-SBP (BACE1-RUSH); test: Retention, ALiS-1 release and wash-out retrieval from the cell surface; settings: HeLa cells
Protocol: as §1
Biotin-mimetic molecule ALiS-1 was prepared in DMSO to 20 mM (stock solution) and the cells were treated with 40 μM final concentration to prevent the interaction between the reporter (target membrane protein) and the hook.
Cells coated in the coverslips were washed once in 1×PBS buffer, fixed in 3% of paraformaldehyde (PFA) (10-15 min, RT), washed (2×) and incubated with 50 mM of NH4Cl (5 min, RT) to quench free aldehydes. […]

With `O=C(O)CCCC[C@@H]1SC[C@@H]2NC(=O)N[C@@H]21` [biotin] the “release of reporter from the hook” value [1] was “released”, the “release of reporter from the hook” value [2] was “leads to the release” and the “release of reporter from the hook” value [3] was “leads to the release”.

B1: Ii Hook: previously described Invariant chain-based Hook: streptavidin fused to human invariant chain Ii (Boncompain et al. 2012) (protein)
chain: MHRRRSRSCREDQKPVMDDQRDLISNNEQLPMLGRRPGAPESKCSRGALYTGFSILVTLLLAGQATTAYFLYQQQGRLDKLTVTSQNLQLENLRMKLPKPPKPVSKMRMATPLLMQALPMGALPQGPMQNATKYGNMTEDHVMHLLQNADPLKVYPPLKGSFPENLRHLKNTMETIDWKVFESWMHHWLLFEMSRHSLEQKPTDAPPKESLELEDPSSGLGVTKQDLGPVPM
modifications: left off: large carriers
In the case of B1, the localization of reporter ([4]; absence of releasing molecule (without biotin)) is reported as “retained in the ER” and the “retrieval of cell surface reporter back to the ER” value ([4]; washing-out ALiS-1 for 1 hour) is reported as “does not allow to capture cell surface localized BAC1-RUSH”.
